Assay results published in publication PMC4522657, “Identification of a DYRK1A Inhibitor that Induces Degradation of the Target Kinase using Co-chaperone CDC37 fused with Luciferase nanoKAZ” (Scientific Reports, 2015).

How the values were obtained:
Assay in all cases: Kinase panel, CaNDY 1 µM
Format in all cases: biochemical
Settings in all cases: CaNDY 1 µM relative to DMSO
IKKα = target: T1, IKKα (Homo sapiens, UniProt O15111)
T1 construct: purchased Carna Biosciences
Description: (§1) Detailed information on the assay conditions is available on the website of Carna Biosciences (http://www.carnabio.com/english/index.html; Kobe, Japan). In brief, full-length human recombinant kinases were expressed using a baculovirus expression system as amino-terminal GST-fusion proteins, and purified by glutathione-Sepharose chromatography. The GenBank accession numbers of DYRK1A, DYRK1B, DYRK2, and DYRK3 were NP_001387.2, NP_004705.1, NP_003574.1, and NP_003573.2. Kinase activities were evaluated by Off-chip Mobility Shift Assay after reaction of 1 μM of the substrate DYRKtide-F with ATP (25 μM for DYRK1A, 50 μM for DYRK1B, 10 μM for DYRK2, and 5 μM for DYRK3). For each compound, a DMSO solution was diluted in assay buffer to yield a final concentration of 1% DMSO. After incubation for one hour at room temperature, substrate phosphorylation was analyzed by electrophoretic separation of the substrate and products using a Caliper LC3000 platform (Caliper Life Sciences, Mountain View, CA, USA). The phosphorylated product (P)/(P + substrate) ratio was calculated at each concentration of each small molecule and the percent inhibition was expressed relative to a control assay in the absence of the small molecule. […] The IC50 of each compound was calculated by interpolation on a log-concentration-response curve fitted with a four-parameter logistic equation.
(§2) All kinase assays were carried out at Carna Biosciences. The inhibitory map was made with Kinome Render[36].

DAPK1 = target: T2, DAPK1 (Homo sapiens, UniProt P53355)
T2 construct: purchased Carna Biosciences
Description: as §1, §2

ROCK1 = target: T3, ROCK1 (Homo sapiens, UniProt Q13464)
T3 construct: purchased Carna Biosciences
Description: as §1, §2

LOK = target: T4, LOK (Homo sapiens, UniProt O94804)
T4 construct: purchased Carna Biosciences
T4 sequence (O94804 whole entry): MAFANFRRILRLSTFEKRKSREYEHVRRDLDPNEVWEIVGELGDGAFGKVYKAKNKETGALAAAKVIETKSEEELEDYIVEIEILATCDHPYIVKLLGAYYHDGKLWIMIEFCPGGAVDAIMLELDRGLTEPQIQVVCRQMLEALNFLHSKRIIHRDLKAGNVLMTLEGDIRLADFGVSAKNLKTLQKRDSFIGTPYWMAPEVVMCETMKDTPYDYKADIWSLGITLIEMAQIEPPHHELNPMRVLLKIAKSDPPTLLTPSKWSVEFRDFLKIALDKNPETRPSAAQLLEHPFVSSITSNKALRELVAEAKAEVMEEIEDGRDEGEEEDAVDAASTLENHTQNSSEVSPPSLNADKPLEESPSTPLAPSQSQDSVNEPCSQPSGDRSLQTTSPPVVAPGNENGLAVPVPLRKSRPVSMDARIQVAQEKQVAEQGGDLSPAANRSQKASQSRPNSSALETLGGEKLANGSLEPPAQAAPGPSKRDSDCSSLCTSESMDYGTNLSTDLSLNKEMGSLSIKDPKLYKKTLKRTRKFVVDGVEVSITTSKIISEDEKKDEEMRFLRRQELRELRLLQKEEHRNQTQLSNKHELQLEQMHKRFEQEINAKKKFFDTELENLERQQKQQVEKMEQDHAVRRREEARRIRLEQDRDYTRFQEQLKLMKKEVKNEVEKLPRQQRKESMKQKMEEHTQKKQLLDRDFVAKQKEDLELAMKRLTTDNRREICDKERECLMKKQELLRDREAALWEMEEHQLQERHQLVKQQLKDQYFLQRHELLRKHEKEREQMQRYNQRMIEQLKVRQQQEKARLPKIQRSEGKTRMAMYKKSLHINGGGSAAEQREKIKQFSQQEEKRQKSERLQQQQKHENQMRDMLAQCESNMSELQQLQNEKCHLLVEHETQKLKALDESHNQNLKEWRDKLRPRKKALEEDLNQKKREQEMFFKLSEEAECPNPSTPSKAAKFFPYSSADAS
Description: as §1, §2

MAP3K3_Cascade = target: T5, MAP3K3_Cascade (Homo sapiens, UniProt Q99759)
T5 construct: purchased Carna Biosciences
T5 sequence (Q99759 whole entry): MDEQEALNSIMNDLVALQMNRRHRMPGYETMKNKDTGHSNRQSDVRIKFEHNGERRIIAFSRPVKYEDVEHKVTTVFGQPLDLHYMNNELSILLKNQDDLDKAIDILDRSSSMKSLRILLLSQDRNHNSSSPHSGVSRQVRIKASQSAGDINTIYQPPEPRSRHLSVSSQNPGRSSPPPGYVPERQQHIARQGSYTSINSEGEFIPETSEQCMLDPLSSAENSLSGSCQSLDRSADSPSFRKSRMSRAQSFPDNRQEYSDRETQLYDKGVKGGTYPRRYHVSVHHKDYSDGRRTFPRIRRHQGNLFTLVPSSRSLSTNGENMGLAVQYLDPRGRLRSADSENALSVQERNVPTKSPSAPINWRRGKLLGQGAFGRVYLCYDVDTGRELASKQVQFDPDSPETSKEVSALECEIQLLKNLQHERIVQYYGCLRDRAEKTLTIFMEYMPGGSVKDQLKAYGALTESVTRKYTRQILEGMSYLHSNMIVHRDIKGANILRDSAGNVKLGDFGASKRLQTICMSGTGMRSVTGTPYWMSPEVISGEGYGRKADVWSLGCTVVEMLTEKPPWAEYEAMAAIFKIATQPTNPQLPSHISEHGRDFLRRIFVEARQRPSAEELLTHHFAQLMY
Description: as §1, §2

EPHB3 = target: T6, EPHB3 (Homo sapiens, UniProt P54753)
T6 construct: purchased Carna Biosciences
Description: as §1, §2

CDK3/CycE1 = target: T7, CDK3/CycE1 (Homo sapiens, UniProt Q00526)
T7 construct: purchased Carna Biosciences
Description: as §1, §2

MSSK1 = target: T8, MSSK1 (Homo sapiens, UniProt Q9UPE1)
T8 construct: purchased Carna Biosciences
Description: as §1, §2

IKKβ = target: T9, IKKβ (Homo sapiens, UniProt O14920)
T9 construct: purchased Carna Biosciences
Description: as §1, §2

DLK_Cascade = target: T10, DLK_Cascade (Homo sapiens, UniProt Q12852)
T10 construct: purchased Carna Biosciences
Description: as §1, §2

MOS_Cascade = target: T11, MOS_Cascade (Homo sapiens, UniProt P00540)
T11 construct: purchased Carna Biosciences
Description: as §1, §2

BRSK2 = target: T12, BRSK2 (Homo sapiens, UniProt Q8IWQ3)
T12 construct: purchased Carna Biosciences
Description: as §1, §2

ABL(E255K) = target: T13, ABL(E255K) (Homo sapiens, UniProt P00519, E255K)
T13 construct: purchased Carna Biosciences
T13 sequence (P00519 whole entry E255K): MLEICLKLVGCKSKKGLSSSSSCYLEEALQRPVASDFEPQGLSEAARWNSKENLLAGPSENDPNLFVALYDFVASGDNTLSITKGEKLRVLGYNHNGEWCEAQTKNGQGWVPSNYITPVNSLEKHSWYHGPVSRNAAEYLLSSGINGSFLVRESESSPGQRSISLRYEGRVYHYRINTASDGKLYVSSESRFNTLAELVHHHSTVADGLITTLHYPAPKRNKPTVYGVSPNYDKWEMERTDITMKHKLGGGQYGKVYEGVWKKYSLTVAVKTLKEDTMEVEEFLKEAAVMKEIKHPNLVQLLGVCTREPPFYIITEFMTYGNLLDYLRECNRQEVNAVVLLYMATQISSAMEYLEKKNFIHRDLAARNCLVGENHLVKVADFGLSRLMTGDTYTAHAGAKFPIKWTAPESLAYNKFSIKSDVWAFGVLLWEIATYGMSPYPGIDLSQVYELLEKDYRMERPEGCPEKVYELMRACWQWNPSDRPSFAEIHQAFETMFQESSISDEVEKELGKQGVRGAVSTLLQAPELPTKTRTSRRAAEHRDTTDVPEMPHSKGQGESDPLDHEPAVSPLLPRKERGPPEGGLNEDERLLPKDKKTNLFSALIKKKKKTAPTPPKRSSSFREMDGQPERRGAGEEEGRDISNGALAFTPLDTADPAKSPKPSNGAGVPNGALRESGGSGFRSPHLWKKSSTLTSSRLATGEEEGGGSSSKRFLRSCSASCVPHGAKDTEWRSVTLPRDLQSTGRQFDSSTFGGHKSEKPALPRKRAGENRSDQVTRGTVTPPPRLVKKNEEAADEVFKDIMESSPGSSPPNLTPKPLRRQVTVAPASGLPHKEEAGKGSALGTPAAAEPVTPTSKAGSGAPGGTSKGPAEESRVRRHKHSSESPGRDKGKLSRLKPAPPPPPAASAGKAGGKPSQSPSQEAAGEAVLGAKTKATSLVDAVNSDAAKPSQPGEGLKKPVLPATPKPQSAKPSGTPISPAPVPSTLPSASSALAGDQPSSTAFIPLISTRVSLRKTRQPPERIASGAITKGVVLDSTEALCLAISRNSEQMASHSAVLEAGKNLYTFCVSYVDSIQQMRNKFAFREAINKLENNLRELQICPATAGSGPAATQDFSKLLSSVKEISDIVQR
Description: as §1, §2

PKACβ = target: T14, PKACβ (Homo sapiens, UniProt P22694)
T14 construct: purchased Carna Biosciences
Description: as §1, §2

ALK(L1196M) = target: T15, ALK(L1196M) (Homo sapiens, UniProt Q9UM73, L1196M)
T15 construct: purchased Carna Biosciences
Description: as §1, §2

FGFR3(K650M) = target: T16, FGFR3(K650M) (Homo sapiens, UniProt P22607, K650M)
T16 construct: purchased Carna Biosciences
T16 sequence (P22607 23-806 K650M): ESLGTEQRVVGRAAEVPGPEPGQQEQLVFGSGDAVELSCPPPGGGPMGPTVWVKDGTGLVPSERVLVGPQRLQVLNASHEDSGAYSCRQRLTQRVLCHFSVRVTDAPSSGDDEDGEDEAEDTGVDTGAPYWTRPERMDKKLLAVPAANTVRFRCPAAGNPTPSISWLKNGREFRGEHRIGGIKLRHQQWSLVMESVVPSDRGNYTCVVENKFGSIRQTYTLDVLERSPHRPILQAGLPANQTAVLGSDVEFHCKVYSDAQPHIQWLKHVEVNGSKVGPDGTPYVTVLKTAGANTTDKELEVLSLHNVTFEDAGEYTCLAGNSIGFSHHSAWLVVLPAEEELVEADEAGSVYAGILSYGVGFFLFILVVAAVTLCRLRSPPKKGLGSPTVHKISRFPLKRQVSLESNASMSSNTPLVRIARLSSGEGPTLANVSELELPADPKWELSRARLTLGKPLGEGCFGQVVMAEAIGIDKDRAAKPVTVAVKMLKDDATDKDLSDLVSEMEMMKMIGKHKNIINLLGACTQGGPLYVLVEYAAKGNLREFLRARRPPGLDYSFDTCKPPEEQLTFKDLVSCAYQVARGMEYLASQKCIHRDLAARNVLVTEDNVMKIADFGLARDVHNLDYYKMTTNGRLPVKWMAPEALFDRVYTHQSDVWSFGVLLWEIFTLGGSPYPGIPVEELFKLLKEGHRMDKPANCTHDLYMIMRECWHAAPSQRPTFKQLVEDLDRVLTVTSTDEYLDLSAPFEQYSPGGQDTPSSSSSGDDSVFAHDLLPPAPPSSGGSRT
Description: as §1, §2

EML4-ALK = target: T17, EML4-ALK (Homo sapiens, UniProt Q9UM73)
T17 construct: purchased Carna Biosciences
Description: as §1, §2

CDK6/CycD3 = target: T18, CDK6/CycD3 (Homo sapiens, UniProt Q00534)
T18 construct: purchased Carna Biosciences
Description: as §1, §2

EGFR(d746-750) = target: T19, EGFR(d746-750) (Homo sapiens, UniProt P00533, DEL746-750)
T19 construct: purchased Carna Biosciences
Description: as §1, §2

ZAP70 = target: T20, ZAP70 (Homo sapiens, UniProt P43403)
T20 construct: purchased Carna Biosciences
Description: as §1, §2

MAP2K4_Cascade = target: T21, MAP2K4_Cascade (Homo sapiens, UniProt P45985)
T21 construct: purchased Carna Biosciences
Description: as §1, §2

EGFR(L858R) = target: T22, EGFR(L858R) (Homo sapiens, UniProt P00533, L858R)
T22 construct: purchased Carna Biosciences
Description: as §1, §2

SGK3 = target: T23, SGK3 (Homo sapiens, UniProt Q96BR1)
T23 construct: purchased Carna Biosciences
Description: as §1, §2

AMPKα1/β1/γ1 = target: T24, AMPKα1/β1/γ1 (Homo sapiens, UniProt Q13131)
T24 construct: purchased Carna Biosciences
Description: as §1, §2

EPHA5 = target: T25, EPHA5 (Homo sapiens, UniProt P54756)
T25 construct: purchased Carna Biosciences
T25 sequence (P54756 25-1037): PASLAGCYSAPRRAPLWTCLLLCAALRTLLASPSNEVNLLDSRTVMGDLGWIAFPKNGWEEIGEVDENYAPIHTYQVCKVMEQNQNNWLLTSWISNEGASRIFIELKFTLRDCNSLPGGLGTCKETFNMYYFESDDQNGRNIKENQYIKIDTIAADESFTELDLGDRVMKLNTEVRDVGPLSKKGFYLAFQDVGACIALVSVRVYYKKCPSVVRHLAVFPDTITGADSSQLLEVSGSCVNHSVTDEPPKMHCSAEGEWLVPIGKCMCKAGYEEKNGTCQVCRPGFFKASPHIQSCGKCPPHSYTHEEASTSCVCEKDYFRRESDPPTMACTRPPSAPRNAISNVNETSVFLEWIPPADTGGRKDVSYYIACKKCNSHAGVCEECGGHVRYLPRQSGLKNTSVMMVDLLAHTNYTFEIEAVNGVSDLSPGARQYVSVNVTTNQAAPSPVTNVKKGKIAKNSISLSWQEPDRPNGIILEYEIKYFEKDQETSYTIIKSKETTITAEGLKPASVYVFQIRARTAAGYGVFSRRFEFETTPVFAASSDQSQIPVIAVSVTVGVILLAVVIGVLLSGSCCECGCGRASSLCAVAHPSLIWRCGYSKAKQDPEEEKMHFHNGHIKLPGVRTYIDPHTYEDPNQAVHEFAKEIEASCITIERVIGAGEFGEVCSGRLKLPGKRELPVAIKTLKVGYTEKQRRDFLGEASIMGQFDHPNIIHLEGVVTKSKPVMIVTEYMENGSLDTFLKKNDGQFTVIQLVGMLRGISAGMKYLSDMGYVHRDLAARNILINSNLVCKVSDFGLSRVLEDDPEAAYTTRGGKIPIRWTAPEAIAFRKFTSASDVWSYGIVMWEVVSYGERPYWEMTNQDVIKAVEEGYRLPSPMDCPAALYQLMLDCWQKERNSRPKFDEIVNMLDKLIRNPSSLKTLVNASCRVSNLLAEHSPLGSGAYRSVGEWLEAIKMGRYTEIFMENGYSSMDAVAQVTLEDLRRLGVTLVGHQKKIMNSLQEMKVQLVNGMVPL
Description: as §1, §2

MST4 = target: T26, MST4 (Homo sapiens, UniProt Q9P289)
T26 construct: purchased Carna Biosciences
Description: as §1, §2

JAK2 = target: T27, JAK2 (Homo sapiens, UniProt O60674)
T27 construct: purchased Carna Biosciences
Description: as §1, §2

SPHK1 = target: T28, SPHK1 (Homo sapiens, UniProt Q9NYA1)
T28 construct: purchased Carna Biosciences
Description: as §1, §2

CDK5/p25 = target: T29, CDK5/p25 (Homo sapiens, UniProt Q00535)
T29 construct: purchased Carna Biosciences
Description: as §1, §2

AKT1 = target: T30, AKT1 (Homo sapiens, UniProt P31749)
T30 construct: purchased Carna Biosciences
T30 sequence (P31749 whole entry): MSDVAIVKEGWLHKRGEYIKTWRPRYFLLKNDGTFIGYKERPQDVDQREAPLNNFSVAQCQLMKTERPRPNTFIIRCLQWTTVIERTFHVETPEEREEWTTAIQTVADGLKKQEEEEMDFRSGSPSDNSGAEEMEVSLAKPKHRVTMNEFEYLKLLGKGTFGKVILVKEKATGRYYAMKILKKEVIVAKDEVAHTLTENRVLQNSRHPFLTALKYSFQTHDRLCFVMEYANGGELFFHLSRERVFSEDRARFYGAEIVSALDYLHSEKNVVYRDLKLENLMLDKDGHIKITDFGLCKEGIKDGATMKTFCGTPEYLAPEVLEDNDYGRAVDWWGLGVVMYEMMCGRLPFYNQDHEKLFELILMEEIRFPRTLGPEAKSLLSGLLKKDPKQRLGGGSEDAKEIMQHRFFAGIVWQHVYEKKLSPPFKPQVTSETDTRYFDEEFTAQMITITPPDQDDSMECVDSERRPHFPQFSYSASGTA
Description: as §1, §2

KIT(T670I) = target: T31, KIT(T670I) (Homo sapiens, UniProt P10721, T670I)
T31 construct: purchased Carna Biosciences
Description: as §1, §2

ROCK2 = target: T32, ROCK2 (Homo sapiens, UniProt O75116)
T32 construct: purchased Carna Biosciences
Description: as §1, §2

LATS2 = target: T33, LATS2 (Homo sapiens, UniProt Q9NRM7)
T33 construct: purchased Carna Biosciences
Description: as §1, §2

MINK = target: T34, MINK (Homo sapiens, UniProt Q8N4C8)
T34 construct: purchased Carna Biosciences
Description: as §1, §2

ITK = target: T35, ITK (Homo sapiens, UniProt Q08881)
T35 construct: purchased Carna Biosciences
Description: as §1, §2

In the case of [H]/N=C1/NC(=O)C(=Cc2ccc3c(c2)CCO3)S1 [CaNDY, (Z)-5-[(2,3-dihydrobenzofuran-5-yl)methylene]-2-iminothiazolidin-4-one], the remaining activity at 1 µM (IKKα) is reported as 95.7%, the remaining activity at 1 µM (DAPK1) is reported as 80.6% and the remaining activity at 1 µM (ROCK1) is reported as 92.5%. The “%Activity” value (LOK) was 106.3%, the remaining activity at 1 µM (MAP3K3_Cascade) was 104% and the remaining activity at 1 µM (EPHB3) was 98.6%. For the same molecule, the “%Activity” value (CDK3/CycE1) was 94.7%, the remaining activity at 1 µM (MSSK1) was 98% and the remaining activity at 1 µM (IKKβ) was 104%. For the same molecule, the “%Activity” value (DLK_Cascade) was 102.6%, the remaining activity at 1 µM (MOS_Cascade) was 92.4% and the remaining activity at 1 µM (BRSK2) was 97.8%. It also gave a remaining activity at 1 µM (ABL(E255K)) of 104%, a remaining activity at 1 µM (PKACβ) of 92.5% and a remaining activity at 1 µM (ALK(L1196M)) of 97.8%. It also gave a remaining activity at 1 µM (FGFR3(K650M)) of 101%, a remaining activity at 1 µM (EML4-ALK) of 99.2% and a remaining activity at 1 µM (CDK6/CycD3) of 97.1%. The “%Activity” value (EGFR(d746-750)) was 104.8%, the remaining activity at 1 µM (ZAP70) was 95.7% and the remaining activity at 1 µM (MAP2K4_Cascade) was 100%. For the same molecule, the “%Activity” value (EGFR(L858R)) was 105.7%, the remaining activity at 1 µM (SGK3) was 93.3% and the remaining activity at 1 µM (AMPKα1/β1/γ1) was 91.9%. The “%Activity” value (EPHA5) was 100.1%, the remaining activity at 1 µM (MST4) was 103% and the “%Activity” value (JAK2) was 100.3%. It also gave a remaining activity at 1 µM (SPHK1) of 83.5%, a remaining activity at 1 µM (CDK5/p25) of 88.5% and a remaining activity at 1 µM (AKT1) of 104%. The remaining activity at 1 µM (KIT(T670I)) was 96.6%, the remaining activity at 1 µM (ROCK2) was 103% and the “%Activity” value (LATS2) was 98.1%. The remaining activity at 1 µM (MINK) was 83.7% and the “%Activity” value (ITK) was 99.9%.
